# According to ChEMBL document CHEMBL5096221, “Discovery of a Highly Potent and Orally Bioavailable STAT3 Dual Phosphorylation Inhibitor for Pancreatic Cancer Treatment” (J Med Chem, 2022):
# What was measured:
# [1] = target: Signal transducer and activator of transcription 3 (Homo sapiens, UniProt P40763); experiment: Inhibition of STAT3 in human HEK293T cells assessed as inhibition of IL-6 stimulated STAT3 phosphorylation by dual-luciferase reporter assay; format: cell-based
# [2] = Inhibition of ATP production in human BXPC-3 cells incubated for 20 to 24 hrs by ATP assay kit method; format: functional, cell-based
# [3] = test system: BXPC-3; experiment: Anti-proliferative activity against human BXPC-3 cells assessed as cell growth inhibition incubated for 72 hrs by MTS assay; format: functional, cell-based; conditions: BXPC-3, 72 h
# [4] = test system: Capan-2; experiment: Anti-proliferative activity against human Capan-2 cells assessed as cell growth inhibition incubated for 72 hrs by MTS assay; format: functional, cell-based; conditions: Capan-2, 72 h
# [5] = Microsomal stability in human liver microsomes assessed as half life incubated upto 40 mins in presence of NADPH by LC-MS/MS analysis; format: ADME, Microsome
# [6] = Microsomal stability in rat liver microsomes assessed as half life incubated upto 40 mins in presence of NADPH by LC-MS/MS analysis; format: ADME, Microsome
# [7] = Microsomal stability in dog liver microsomes assessed as half life incubated upto 40 mins in presence of NADPH by LC-MS/MS analysis; format: ADME, Canis lupus familiaris, Microsome
# [8] = Microsomal stability in human liver microsomes assessed as intrinsic clearance incubated upto 40 mins in presence of NADPH by LC-MS/MS analysis; format: ADME, Microsome; conditions: read-out: CLH
# [9] = Microsomal stability in rat liver microsomes assessed as intrinsic clearance incubated upto 40 mins in presence of NADPH by LC-MS/MS analysis; format: ADME, Microsome; conditions: read-out: CLH
# [10] = Microsomal stability in dog liver microsomes assessed as intrinsic clearance incubated upto 40 mins in presence of NADPH by LC-MS/MS analysis; format: ADME, Canis lupus familiaris, Microsome; conditions: read-out: CLH
# [11] = Microsomal stability in human liver microsomes assessed as compound remaining incubated for 60 mins in presence of NADPH by LC-MS/MS analysis; format: ADME, Microsome; conditions: read-out: Stability
# [12] = Microsomal stability in rat liver microsomes assessed as compound remaining incubated for 60 mins in presence of NADPH by LC-MS/MS analysis; format: ADME, Microsome; conditions: read-out: Stability
# [13] = Microsomal stability in dog liver microsomes assessed as compound remaining incubated for 60 mins in presence of NADPH by LC-MS/MS analysis; format: ADME, Canis lupus familiaris, Microsome; conditions: read-out: Stability
# [14] = target: T1, Cytochrome P450 1A2 (Homo sapiens, UniProt P05177); experiment: Inhibition of CYP1A2 in human liver microsomes using phenacetin as substrate incubated for 30 mins in presence of NADPH by HPLC analysis; format: ADME, Microsome
# T1 sequence (P05177 whole entry): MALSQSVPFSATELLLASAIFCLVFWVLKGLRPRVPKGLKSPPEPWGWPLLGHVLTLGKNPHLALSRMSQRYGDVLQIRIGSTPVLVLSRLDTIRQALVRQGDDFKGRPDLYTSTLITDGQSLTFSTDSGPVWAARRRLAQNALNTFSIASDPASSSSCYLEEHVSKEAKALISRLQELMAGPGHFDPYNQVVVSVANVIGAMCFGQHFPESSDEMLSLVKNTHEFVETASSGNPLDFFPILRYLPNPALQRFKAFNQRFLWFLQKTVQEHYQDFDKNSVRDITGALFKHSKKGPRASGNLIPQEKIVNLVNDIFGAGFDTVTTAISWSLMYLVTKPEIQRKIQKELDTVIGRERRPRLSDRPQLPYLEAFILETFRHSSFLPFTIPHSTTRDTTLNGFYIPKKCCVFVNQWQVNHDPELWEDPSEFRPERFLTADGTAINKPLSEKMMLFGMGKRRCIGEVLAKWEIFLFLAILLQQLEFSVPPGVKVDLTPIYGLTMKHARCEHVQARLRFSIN
# [15] = target: Cytochrome P450 2C9 (Homo sapiens, UniProt P11712); experiment: Inhibition of CYP2C9 in human liver microsomes using tolbutamide as substrate incubated for 60 mins in presence of NADPH by HPLC analysis; format: ADME, Microsome
# Sequence of Cytochrome P450 2C9 (P11712 whole entry): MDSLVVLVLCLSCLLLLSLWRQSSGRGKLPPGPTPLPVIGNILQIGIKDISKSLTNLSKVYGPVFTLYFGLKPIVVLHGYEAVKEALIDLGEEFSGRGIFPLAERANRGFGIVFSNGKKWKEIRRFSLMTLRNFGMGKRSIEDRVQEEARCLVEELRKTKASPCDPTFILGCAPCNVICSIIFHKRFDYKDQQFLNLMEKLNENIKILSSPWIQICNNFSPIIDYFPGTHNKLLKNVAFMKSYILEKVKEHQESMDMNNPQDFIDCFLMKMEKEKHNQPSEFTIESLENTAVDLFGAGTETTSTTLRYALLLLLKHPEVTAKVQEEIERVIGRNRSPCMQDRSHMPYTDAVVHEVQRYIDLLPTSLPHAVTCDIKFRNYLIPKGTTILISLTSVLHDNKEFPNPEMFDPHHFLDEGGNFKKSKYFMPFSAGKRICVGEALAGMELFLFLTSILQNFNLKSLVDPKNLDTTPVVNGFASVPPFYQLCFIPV
# [16] = target: Cytochrome P450 2C19 (Homo sapiens, UniProt P33261); experiment: Inhibition of CYP2C19 in human liver microsomes; format: ADME, Microsome
# Sequence of Cytochrome P450 2C19 (P33261 whole entry): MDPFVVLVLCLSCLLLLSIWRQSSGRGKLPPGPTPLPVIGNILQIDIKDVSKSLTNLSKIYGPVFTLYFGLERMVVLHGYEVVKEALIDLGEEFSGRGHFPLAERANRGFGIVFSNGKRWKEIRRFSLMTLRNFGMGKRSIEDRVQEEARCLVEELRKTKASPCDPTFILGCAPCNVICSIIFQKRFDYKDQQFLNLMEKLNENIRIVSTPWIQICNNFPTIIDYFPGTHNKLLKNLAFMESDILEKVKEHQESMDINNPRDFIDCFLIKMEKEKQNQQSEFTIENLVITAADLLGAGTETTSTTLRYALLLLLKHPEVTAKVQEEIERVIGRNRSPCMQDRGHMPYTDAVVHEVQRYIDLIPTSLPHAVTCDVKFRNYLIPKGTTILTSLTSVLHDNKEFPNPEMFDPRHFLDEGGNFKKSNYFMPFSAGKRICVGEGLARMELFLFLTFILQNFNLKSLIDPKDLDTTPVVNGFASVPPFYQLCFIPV
# [17] = target: Cytochrome P450 2D6 (Homo sapiens, UniProt P10635); experiment: Inhibition of CYP2D6 in human liver microsomes using dextromethorphan as substrate incubated for 60 mins in presence of NADPH by HPLC analysis; format: ADME, Microsome
# Sequence of Cytochrome P450 2D6 (P10635 whole entry): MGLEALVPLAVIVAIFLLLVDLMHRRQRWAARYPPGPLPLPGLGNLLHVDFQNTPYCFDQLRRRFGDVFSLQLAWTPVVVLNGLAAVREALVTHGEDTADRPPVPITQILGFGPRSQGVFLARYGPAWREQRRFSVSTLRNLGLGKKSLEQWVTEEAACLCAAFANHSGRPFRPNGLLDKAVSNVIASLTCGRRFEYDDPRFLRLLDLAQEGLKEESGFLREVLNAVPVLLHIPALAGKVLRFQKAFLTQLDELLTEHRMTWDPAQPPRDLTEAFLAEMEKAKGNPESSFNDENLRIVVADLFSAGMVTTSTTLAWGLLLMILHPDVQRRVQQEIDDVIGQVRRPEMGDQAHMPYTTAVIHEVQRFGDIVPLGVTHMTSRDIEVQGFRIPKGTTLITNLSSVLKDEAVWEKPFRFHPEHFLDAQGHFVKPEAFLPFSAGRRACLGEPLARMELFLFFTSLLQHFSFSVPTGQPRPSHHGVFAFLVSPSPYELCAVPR
# [18] = target: Cytochrome P450 3A4 (Homo sapiens, UniProt P08684); experiment: Inhibition of CYP3A4 in human liver microsomes using testosterone as substrate in presence of NADPH by HPLC analysis; format: ADME, Microsome
# Sequence of Cytochrome P450 3A4 (P08684 whole entry): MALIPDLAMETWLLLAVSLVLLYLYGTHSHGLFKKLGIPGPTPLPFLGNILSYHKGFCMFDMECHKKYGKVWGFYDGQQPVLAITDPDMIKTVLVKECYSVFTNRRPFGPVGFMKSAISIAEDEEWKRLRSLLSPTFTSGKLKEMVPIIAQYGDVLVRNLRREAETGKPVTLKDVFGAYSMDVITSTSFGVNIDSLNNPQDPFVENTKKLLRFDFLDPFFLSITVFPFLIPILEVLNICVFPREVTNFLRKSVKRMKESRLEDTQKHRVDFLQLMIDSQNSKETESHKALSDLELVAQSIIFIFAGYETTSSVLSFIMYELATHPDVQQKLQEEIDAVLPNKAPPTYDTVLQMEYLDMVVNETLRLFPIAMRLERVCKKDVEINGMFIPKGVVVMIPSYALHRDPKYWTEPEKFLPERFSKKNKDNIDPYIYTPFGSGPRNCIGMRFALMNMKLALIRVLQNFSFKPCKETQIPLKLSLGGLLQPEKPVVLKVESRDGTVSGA
# [19] = Cmax in BALB/c mouse at 1 mg/kg,iv measured upto 24 hrs by LC-MS/MS analysis; format: ADME, organism-based; set-up: dose 1 mg/kg, time < 24 hrs, route iv; conditions: in vivo
# [20] = AUC (0-24hrs) in BALB/c mouse at 1 mg/kg,iv measured upto 24 hrs by LC-MS/MS analysis; format: ADME, organism-based; set-up: time < 24 hrs, dose 1 mg/kg, route iv; conditions: in vivo
# [21] = AUC (0-infinity) in BALB/c mouse at 1 mg/kg,iv measured upto 24 hrs by LC-MS/MS analysis; format: ADME, organism-based; set-up: dose 1 mg/kg, time < 24 hrs, route iv; conditions: in vivo
# [22] = Volume of distribution at steady state in BALB/c mouse at 1 mg/kg,iv measured upto 24 hrs by LC-MS/MS analysis; format: ADME, organism-based; conditions: in vivo, iv, 1 mg/kg, 24 h
# [23] = Clearance at steady state in BALB/c mouse at 1 mg/kg,iv measured upto 24 hrs by LC-MS/MS analysis; format: ADME, organism-based; conditions: in vivo, iv, 1 mg/kg, 24 h
# [24] = MRT (0 to last) in BALB/c mouse at 1 mg/kg,iv measured upto 24 hrs by LC-MS/MS analysis; format: ADME, organism-based; conditions: in vivo, iv, 1 mg/kg, 24 h
# [25] = Half life in BALB/c mouse at 1 mg/kg,iv measured upto 24 hrs by LC-MS/MS analysis; format: ADME, organism-based; conditions: in vivo
# [26] = Cmax in BALB/c mouse at 10 mg/kg,po measured upto 24 hrs by LC-MS/MS analysis; format: ADME, organism-based; set-up: time < 24 hrs, dose 10 mg/kg, route po; conditions: in vivo
# [27] = AUC (0-24hrs) in BALB/c mouse at 10 mg/kg,po measured upto 24 hrs by LC-MS/MS analysis; format: ADME, organism-based; set-up: dose 10 mg/kg, time < 24 hrs, route po; conditions: in vivo
# [28] = AUC (0-infinity) in BALB/c mouse at 10 mg/kg,po measured upto 24 hrs by LC-MS/MS analysis; format: ADME, organism-based; set-up: time < 24 hrs, dose 10 mg/kg, route po; conditions: in vivo
# [29] = MRT (0 to last) in BALB/c mouse at 10 mg/kg,po measured upto 24 hrs by LC-MS/MS analysis; format: ADME, organism-based; conditions: in vivo
# [30] = Half life in BALB/c mouse at 10 mg/kg,po measured upto 24 hrs by LC-MS/MS analysis; format: ADME, organism-based; conditions: in vivo
# [31] = Oral bioavailability in BALB/c mouse at 10 mg/kg,po measured upto 24 hrs by LC-MS/MS analysis; format: ADME, organism-based; conditions: in vivo
# [32] = test system: BXPC-3; experiment: Antitumor activity against human BXPC-3 cells xenografted BALB/c mouse model assessed as tumor growth inhibition at 30 mg/kg,po administrated once daily for 8 weeks; format: functional; conditions: BXPC-3, 1344 h, read-out: TGI
# [33] = Toxicity in BALB/c mouse xenografted with human BXPC-3 cells assessed as body weight change at 30 mg/kg,po administrated once daily for 8 weeks; format: organism-based; conditions: in vivo, 1344 h
# [34] = Toxicity in BALB/c mouse xenografted with human BXPC-3 cells assessed as effect on heart at 30 mg/kg,po administrated once daily for 8 weeks by H and E staining based microscopic analysis; format: organism-based; conditions: in vivo, 1344 h
# [35] = Toxicity in BALB/c mouse xenografted with human BXPC-3 cells assessed as effect on liver at 30 mg/kg,po administrated once daily for 8 weeks by H and E staining based microscopic analysis; format: organism-based; conditions: in vivo, 1344 h
# [36] = Toxicity in BALB/c mouse xenografted with human BXPC-3 cells assessed as effect on spleen at 30 mg/kg,po administrated once daily for 8 weeks by H and E staining based microscopic analysis; format: organism-based; conditions: in vivo, 1344 h
# [37] = Toxicity in BALB/c mouse xenografted with human BXPC-3 cells assessed as effect on lung at 30 mg/kg,po administrated once daily for 8 weeks by H and E staining based microscopic analysis; format: organism-based; conditions: in vivo, 1344 h
# [38] = Toxicity in BALB/c mouse xenografted with human BXPC-3 cells assessed as effect on kidney at 30 mg/kg,po administrated once daily for 8 weeks by H and E staining based microscopic analysis; format: organism-based; conditions: in vivo, 1344 h
# Sequence of Signal transducer and activator of transcription 3 (P40763 whole entry): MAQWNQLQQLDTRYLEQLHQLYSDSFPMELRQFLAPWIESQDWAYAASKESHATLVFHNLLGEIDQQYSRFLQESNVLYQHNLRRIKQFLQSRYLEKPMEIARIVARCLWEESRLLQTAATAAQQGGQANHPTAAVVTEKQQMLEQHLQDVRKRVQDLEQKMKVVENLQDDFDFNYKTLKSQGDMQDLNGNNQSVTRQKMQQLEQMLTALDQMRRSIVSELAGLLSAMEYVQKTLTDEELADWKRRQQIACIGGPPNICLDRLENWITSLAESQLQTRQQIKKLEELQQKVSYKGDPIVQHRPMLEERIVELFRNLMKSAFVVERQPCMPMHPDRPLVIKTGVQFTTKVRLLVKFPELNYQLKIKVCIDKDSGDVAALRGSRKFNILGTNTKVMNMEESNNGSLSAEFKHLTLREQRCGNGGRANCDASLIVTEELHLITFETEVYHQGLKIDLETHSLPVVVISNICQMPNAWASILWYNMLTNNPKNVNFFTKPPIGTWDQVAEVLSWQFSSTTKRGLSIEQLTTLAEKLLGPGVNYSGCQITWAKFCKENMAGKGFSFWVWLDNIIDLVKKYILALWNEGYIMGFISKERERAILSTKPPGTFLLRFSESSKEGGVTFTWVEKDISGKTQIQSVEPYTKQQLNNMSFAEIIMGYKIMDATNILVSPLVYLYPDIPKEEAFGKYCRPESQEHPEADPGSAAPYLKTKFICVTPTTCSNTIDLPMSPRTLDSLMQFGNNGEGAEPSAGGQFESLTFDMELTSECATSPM
smiles,measurement,setting,value
Cn1c(C(=O)N2CCN(Cc3ccc(OCC(F)(F)F)cc3)CC2)cc2ccc(Oc3cnc(-c4nc(-c5ccc(F)cc5)no4)cn3)cc21,IC50,[1],0.0059 µM
same,IC50,[2],0.0024 µM
same,IC50,[3],0.0014 µM
same,IC50,[4],0.0064 µM
same,half-life,[5],1.22 h
same,half-life,[6],1.24 h
same,half-life,[7],1.07 h
same,microsomal CLint,[8],18.9 µL/min/mg
same,microsomal CLint,[9],18.6 µL/min/mg
same,microsomal CLint,[10],21.5 µL/min/mg
same,remaining at 1 h,[11],57.6%
same,remaining at 1 h,[12],55.4%
same,remaining at 1 h,[13],50.9%
same,IC50,[14],> 50 µM
same,IC50,[15],> 50 µM
same,IC50,[16],> 50 µM
same,IC50,[17],> 50 µM
same,IC50,[18],> 50 µM
same,Cmax,[19],2910 ng/mL
same,AUC(0-t) at 24 h,[20],8680 ng·h/mL
same,AUC(0-inf),[21],13800 ng·h/mL
same,Vdss,[22],3.7352 L/kg
same,CL,[23],1.24 mL/min/kg
same,MRTlast,[24],15 h
same,half-life,[25],17.7 h
same,Cmax,[26],669 ng/mL
same,AUC(0-t) at 24 h,[27],10900 ng·h/mL
same,AUC(0-inf),[28],12300 ng·h/mL
same,MRT last at 24 h,[29],15.6 h
same,half-life,[30],13.9 h
same,bioavailability,[31],12.5%
CC(=O)c1cc2c(o1)C(=O)c1ccccc1C2=O [NAPABUCASIN],IC50,[2],1.96 µM
same,IC50,[3],5.31 µM
same,IC50,[4],1.59 µM
same,inhibition in vivo at 30 mg/kg,[32],26.1%
same,Activity,[33],Non-Toxic
same,Activity,[34],Non-Toxic
same,Activity,[35],Non-Toxic
same,Activity,[36],Non-Toxic
same,Activity,[37],Non-Toxic
same,Activity,[38],Non-Toxic
